Measured values published in patent US20220062262A1, “GSNO REDUCTASE INHIBITOR AS AN ADJUNCT THERAPY WITH REMOTE ISCHEMIC CONDITIONING AND THROMBOLYTIC REPERFUSION THERAPIES IN STROKE” (KING ABDULAZIZ UNIVERSITY, priority 2020, published 2022).

Columns and labels:
[1] = test system: pMCAL-stroke (permanent occlusion of distal MCA trunk); assay: Permanent MCA occlusion (pMCAo/pMCAL) stroke model in adult male and ovariectomized female mice; type: in vivo; conditions: 2.5 mg/kg IV 1 h after stroke, repeated daily for 2 days, males and OVX-females
Description: The procedure for pMCAo was performed in mice as reported by Hoda et al. (Stroke 2012, 43(10):2794-2799). Briefly, under anesthesia, the junction of left zygomatic arch and squamous bone was drilled to make a 2-3 mm burr hole to expose the main trunk of MCA. The left MCA distal to the lenticulostriate branches was electrocauterized carefully without bleeding. The wound was closed, and mice were put under post-op recovery as described above. Sham-operated group underwent similar surgical procedures but without electrocauterization. Cortical LDF (Perimed Inc, Sweden) was performed to confirm the induction of stroke in anesthetized mice. Briefly, mice were anesthetized as above and a shallow indent was made in the parietal skull using a low-speed drill to place the LDF probe holder (PH07-6, Perimed Inc) aligning the holder hole at the stereotaxic coordinates (AP: 2-mm and lateral 3-mm with respect to bregma). The needle of LDF-probe (PH407, Perimed Inc) was inserted into the probe holder and the signal was recorded to confirm a significant drop in CBF following stroke. Mice were anesthetized as above, body temperature was maintained at 37±0.5 ° C., the skull was shaved, and a midline skin incision was made to primarily expose the MCA region. Perfusion images were acquired using PeriCam high resolution LASCA-Imager (PSI-Z system, Perimed Inc.) with a 70-mW built-in laser diode for illumination and 1388×1038 pixels CCD camera installed 10 cm above the skull (speed 19 Hz, and exposure time 6 mSec, 1.3 x 1.3 cm). Acquired video and images were analyzed for the dynamic changes in CBF. Overall perfusion of the ipsilateral ischemic hemisphere was determined, normalized with the equal size of region of interest (ROI) from the uninjured contralateral hemisphere and the relative CBF was calculated. […] Therefore, larger white area indicates higher injury and infarction volume. […] Performance of each mouse on the narrow beam was quantified by measuring the time it took for the mouse to traverse the 100-cm distance on the narrow beam and the number of foot slips that occurred in each trial. […]

[2] = test system: tMCAo stroke in STZ-induced diabetic mice; assay: Reperfused tMCAo stroke model in STZ-induced diabetic male mice, with or without RIC therapy; type: in vivo; conditions: for brain tissue oxygenation (PbtO2): 6 h post-reperfusion; for % infarct volume / % swelling / mean NDS: 24 h post-stroke
Excerpt: The tMCAo surgical procedure is similar to TE-stroke surgery, however, the transient occlusion is achieved using a suture instead of a clot as reported by Hoda et al (supra). Briefly, a 6-0 monofilament suture with ˜3-mm silicone-coated tip designed to induce tMCAo in mice (Doccol Corp, USA) was introduced into the ICA via an ECA stump, directed and gently advanced into the MCA region until the suture was wedged to occlude the proximal stem of MCA. The occlusion was maintained prior to withdrawing the filament after […], the ECA- arteriotomy was ligated and the reperfusion was allowed following suture withdrawal. The sham-operated group underwent similar procedures without occlusion, and mice recovered as above.
TTC is a white powder and the solution remains colorless, which is reduced to red 1,3,5-triphenylformazan (TPF) by the enzymatic action of various dehydrogenases primarily mitochondrial dehydrogenase from the living tissues, while the core remains as white. Therefore, larger white area indicates higher injury and infarction volume. After performing ATT, mice were overdosed and deeply anesthetized with high isofluorane (5%). Brains were very quickly perfused with cold 25 ml of 0.01 M phosphate-buffered saline (PBS), harvested fresh and immediately placed in a metallic mouse brain matrix. Looking at the infarcted area, 5 blades were placed in alternate gaps to cut and obtain […] coronal slices. Sections were individually placed in a 35-mm dish containing pre-warmed (37° C.) 3-ml of 5% TTC in PBS (Sigma) for 20-25 minutes at 37° C., followed by 2× washing with cold PBS and fixation with 10% formalin. In order to image, fixed sections were taken out of the dish and placed in order on a high-resolution Cannon Scanner. After scanning, images were cropped and saved for analysis. Corrected infarct volume was estimated using gray scale image and Scion Image software and presented as the Corrected % infarct volume normalized to the uninjured side.
Diabetes was induced in adult male mice (14±1 weeks of age) as confirmed after 7 days of STZ-injection, followed by tMCAo stroke surgery at 3 weeks post-STZ injection. Stroke was induced with 60-min suture occlusion followed by reperfusion with suture withdrawal. GRI therapy or vehicle was IV-infused 10-min prior to reperfusion and RIC therapy/ RIC-mock was performed 1 h after reperfusion. […] PbtO2 was measured at 6h post-reperfusion (N=6/gp) using a 50-um thick oxygen sensor integrated to an UniAmp multi-channel system (Unisense, Denmark). Measurement signal was averaged for 3 min during a period of stable output as shown in the representative real-time electrogram traces in FIGS. 9A-9D. FIG. 9A is representative of a mouse treated with vehicle and receiving mock RIC. FIG. 9B is representative of a mouse receiving vehicle and RIC therapy. FIG. 9C is representative of a mouse receiving GRI therapy and mock RIC. FIG. 9D is representative of a mouse receiving GRI therapy and RIC therapy.
Diabetic adult male mice (as described in Example 4) were subjected to tMCAo (N=10/gp) with or without GRI and/or RIC-therapies and outcome measures were performed at 24h post-stroke.

[3] = low-dose GRI combined with RIC therapy, vs all other 3 groups

SMILES: Cc1cc(C(N)=O)ccc1-n1c(CCC(=O)O)ccc1-c1ccc(-n2ccnc2)cc1 [GRI therapy, N6022]
- restoration of CBF (% CBF, LSCI) vs vehicle ([1]; 72 h post-pMCAo): improved restoration of CBF in both sexes significantly
- infarct progression (TTC infarct volume) ([1]; 72 h post-stroke): significantly prevented the infarct progression sex-independently in both groups
- motor function, narrow beam walk test (time to traverse, foot slips) ([1]; 72 h post-stroke): equally effective in improving motor function in both sexes
- brain tissue oxygenation (PbtO2) ([2]; GRI IV 10 min prior to reperfusion followed by RIC therapy 1 h after reperfusion): showed enhanced efficacy of both, GRI and RIC-therapies, in improving benefits of reperfusion to increase PbtO2
- brain tissue oxygenation (PbtO2) ([2]; GRI alone (RIC-mock), IV 10 min prior to reperfusion, vs vehicle RIC-mock): improved PbtO2 significantly
- % infarct volume ([2]; GRI singly (RIC-mock), N=10/gp): did not improve
- % swelling ([2]; GRI singly (RIC-mock), N=10/gp): did not improve
- mean NDS ([2]; GRI singly (RIC-mock), N=10/gp): did not improve
- % infarct volume [2, 3]: significantly improved
- % swelling [2, 3]: significantly improved
- mean NDS [2, 3]: significantly improved
